From patent US10005767B2, “Compositions and methods for inhibition of the JAK pathway” (Rigel Pharmaceuticals, Inc., priority 2009, dated 2018)
pIC50: −log10 of the molar value. Where a name gives a salt, the structure may show the parent alone.

test system: human primary T-cells, IL-2 stimulated proliferation (JAK-1 and JAK-3 dependent; reported as JAK3 activity); assay: Human primary T-cell proliferation stimulated by IL-2 (Example 3); type: cell-based; conditions: Homo sapiens, T-cell, tested under conditions described in Example 3 (IL-2 stimulated human primary T-cell proliferation); read-out: ability to inhibit JAK3 activity, IC50 range (Table V)
Description: The activity of the compounds described herein can further be characterized by assaying the effect of the 2,4-pyrimidinediamine compounds described herein on the proliferative response of primary human T-cells. In this assay, primary human T-cells derived from peripheral blood and pre-activated through stimulation of the T-cell receptor and CD28, proliferate in culture in response to the cytokine Interleukin-2 (IL-2). This proliferative response is dependent on the activation of JAK1 and JAK3 tyrosine kinases, which phosphorylate and activate the transcription factor Stat-5. The primary human T-cells are incubated with the 2,4-pyrimidinediamine compounds in the presence of IL-2 for 72 hours, and at the assay endpoint intracellular ATP concentrations are measured to assess cell viability. A reduction in cell proliferation compared to control conditions is indicative of inhibition of the JAK kinase pathway.
Primary human T-cells derived from peripheral blood and pre-activated through stimulation of the T-cell receptor and CD28, proliferate in vitro in response to the cytokine Interleukin-2 (IL-2). This proliferative response is dependent on the activation of JAK-1 and JAK-3 tyrosine kinases, which phosphorylate and activate the transcription factor Stat-5.
Human primary T cells were prepared as follows. […] The lymphocytes at the serum: ficoll interface were recovered and washed twice with 5 volumes of PBS. […] The primary T-cells were stimulated for 3-4 days, then transferred to a fresh flask and maintained in RPMI with 10% FBS and 40 U/mL IL-2.
The day prior to the assay set up, primary T-cells were centrifuged and resuspended in fresh RPMI with 10% FBS but without IL-2 and starved overnight. For the assay, the primary T-cells were centrifuged and resuspended Yssel's medium at 2×10^6 cells/mL. 50 μL of cell suspension containing 80 U/mL IL-2 was added to each well of a flat bottom 96 well black plate. For the unstimulated control, IL-2 was omitted from the last column on the plate. […] 50 μL of 2× compound was added per well in duplicate and the cells were allowed to proliferate for 72 hours at 37° C.
Proliferation was measured using CellTiter-Glo® Luminescent Cell Viability Assay (Promega), which determines the number of viable cells in culture based on quantitation of the ATP present, as an indicator of metabolically active cells. The substrate was thawed and allowed to come to ambient temperature. After mixing the Cell Titer-Glo reagent and diluent together, 100 μL was added to each well. The plates were mixed on an orbital shaker for two minutes to induce lysis and incubated at ambient temperature for an additional ten minutes to allow the signal to equilibrate.
The compound designations in Table V are consistent with those of Tables I-IV above.

Question: `NS(=O)(=O)c1ccc(Nc2ncc(F)c(Nc3ccc4[nH]c(=O)[nH]c4c3)n2)cc1` [Compound I-13, 5-(5-fluoro-2-(4-aminosulfonylphenylamino)pyrimidin-4-ylamino)-1H-benzo[d]imidazol-2(3H)-one] was tested. Which pIC50 did it give?
Answer: The pIC50 was 5.30 to 6.30.

Question: With `Cc1cnc(Nc2cc(OC3CCC3)cc(C(F)(F)F)c2)nc1Nc1ccc2oc(=O)[nH]c2c1` [Compound I-226, 5-(2-(3-cyclobutoxy-5-(trifluoromethyl)phenylamino)-5-methylpyrimidin-4-ylamino)benzo[d]oxazol-2(3H)-one] as the compound, how does the pIC50 read?
Answer: The pIC50 was 5.30 to 6.30.

Question: How did the pIC50 turn out when `Cc1cnc(Nc2ccc(N3CCC(NCC4CC4)C3)nc2)nc1Nc1ccc2oc(=O)[nH]c2c1` (stereo not shown) [II-94, 5-(2-(6-(3-(cyclopropylmethylamino)pyrrolidin-1-yl)pyridin-3-ylamino)-5-methylpyrimidin-4-ylamino)benzo[d]oxazol-2(3H)-one] was run?
Answer: Its pIC50 is over 6.30.

Question: `Cc1cnc(Nc2ccc(C)c(C(F)(F)F)c2F)nc1Nc1ccc2oc(=O)[nH]c2c1` [Compound I-532, 5-(2-(2-fluoro-4-methyl-3-(trifluoromethyl)phenylamino)-5-methylpyrimidin-4-ylamino)benzo[d]oxazol-2(3H)-one] was tested. Which pIC50 did it give?
Answer: Its pIC50 is over 6.30.

Question: `COc1ccc(Nc2ncc(C)c(Nc3ccc4oc(=O)[nH]c4c3)n2)cc1-c1cccnc1` [Compound I-487, 5-(2-(4-methoxy-3-(pyridin-3-yl)phenylamino)-5-methylpyrimidin-4-ylamino)benzo[d]oxazol-2(3H)-one formate salt] was tested. Which pIC50 did it give?
Answer: Its pIC50 is over 6.30.

Question: How did the pIC50 turn out when `Cc1cnc(Nc2ccc(N3C[C@@H](C)N(C)C[C@@H]3C)nc2)nc1Nc1ccc2oc(=O)[nH]c2c1` (relative stereo) [II-129, 5-methyl-N4-(2-oxo-2,3-dihydro-1,3-benzoxazol-5-yl)-N2-[2-(trans-2,4,5-trimethylpiperazino)pyridin-5-yl]-2,4-pyrimidinediamine] was run?
Answer: The pIC50 was over 6.30.

Question: `Cc1cc(Nc2ncc(C)c(Nc3ccc4oc(=O)[nH]c4c3)n2)ccc1-c1cccnc1` [Compound I-483, 5-(5-methyl-2-(3-methyl-4-(pyridin-3-yl)phenylamino)pyrimidin-4-ylamino)benzo[d]oxazol-2(3H)-one formate salt] was tested. Which pIC50 did it give?
Answer: The pIC50 was over 6.30.

Question: `Cc1cnc(Nc2ccc3c(c2)C=CCNC3=O)nc1Nc1ccc2oc(=O)[nH]c2c1` [IV-18, (Z)-5-(5-methyl-2-(1-oxo-2,3-dihydro-1H-benzo[c]azepin-7-ylamino)pyrimidin-4-ylamino)benzo[d]oxazol-2(3H)-one] was tested. Which pIC50 did it give?
Answer: The pIC50 was over 6.30.

Question: How did the pIC50 turn out when `Cc1cnc(Nc2ccc(N3C[C@@H](C)N[C@@H](C)C3)nc2)nc1Nc1ccc2oc(=O)[nH]c2c1` [II-131, N2-[2-(cis-3,5-dimethylpiperazino)pyridin-5-yl]-5-methyl-N4-(2-oxo-2,3-dihydro-1,3-benzoxazol-5-yl)-2,4-pyrimidinediamine] was run?
Answer: Its pIC50 is over 6.30.

Question: With `Cc1cnc(Nc2ccc(N3CCN(C)CC3)nc2)nc1Nc1ccc2oc(=O)n(C)c2c1` [II-22, N2-(6-(4-methylpiperazin-1-yl)pyridin-3-yl)-N4-(3-methyl-2-oxo-2,3-dihydrobenzo[d]oxazol-5-yl)-5-methylpyrimidine-2,4-diamine] as the compound, how does the pIC50 read?
Answer: The pIC50 was over 6.30.

Question: `Cc1cnc(Nc2ccc3c(c2)C=CCN(C)C3=O)nc1Nc1ccc2oc(=O)[nH]c2c1` [IV-19, (Z)-5-(5-methyl-2-(2-methyl-1-oxo-2,3-dihydro-1H-benzo[c]azepin-7-ylamino)pyrimidin-4-ylamino)benzo[d]oxazol-2(3H)-one] was tested. Which pIC50 did it give?
Answer: The pIC50 was over 6.30.

Question: How did the pIC50 turn out when `Cc1cnc(Nc2ccc(N3CCN(C(=O)OC(F)(F)F)CC3)nc2)nc1Nc1ccc2oc(=O)[nH]c2c1` [II-8, N4-(benzo[d]oxazol-2(3H)-on-5-yl)-N2-(6-(4-trifluoromethoxycarbonylpiperazin-1-yl)pyridin-3-yl)-5-methylpyrimidine-2,4-diamine] was run?
Answer: The pIC50 was over 6.30.

Question: How did the pIC50 turn out when `Cc1cnc(Nc2cnc(N3CC4CNCC4C3)c(F)c2)nc1Nc1ccc2oc(=O)[nH]c2c1` (stereo not shown) [II-50, 5-{2-[5-Fluoro-6-(hexahydro-pyrrolo[3,4-c]pyrrol-2-yl)-pyridin-3-ylamino]-5-methyl-pyrimidin-4-ylamino}-3H-benzooxazol-2-one] was run?
Answer: Its pIC50 is over 6.30.

Question: With `Cc1cnc(Nc2ccc(Cl)cc2)nc1Nc1ccc2oc(=O)[nH]c2c1` [Compound I-172, 5-[2-(4-Chloro-phenylamino)-5-methyl-pyrimidin-4-ylamino]-3H-benzooxazol-2-one] as the compound, how does the pIC50 read?
Answer: Its pIC50 is over 6.30.

Question: `CCCn1c(=O)oc2ccc(Nc3nc(Nc4ccc(N5CCN(C)CC5)nc4)ncc3C)cc21` [II-4, N4-(3-n-propylbenzo[d]oxazol-2(3H)-on-5-yl)-N2-(6-(4-methylpiperazin-1-yl)pyridin-3-yl)-5-methylpyrimidine-2,4-diamine] was tested. Which pIC50 did it give?
Answer: Its pIC50 is over 6.30.

Question: With `Cc1cnc(Nc2ccnc(N3CCN(C)CC3)c2)nc1Nc1ccc2oc(=O)[nH]c2c1` [IV-8, N4-(benzo[d]oxazol-2(3H)-on-5-yl)-N2-[2-(4-methylpiperazino)pyridin-4-yl]-5-methylpyrimidine-2,4-diamine] as the compound, how does the pIC50 read?
Answer: Its pIC50 is under 5.00.

Question: How did the pIC50 turn out when `Cc1cnc(Nc2ccc(OC(F)F)c(CF)c2)nc1Nc1ccc2oc(=O)[nH]c2c1` [Compound I-433, 5-(2-(4-(difluoromethoxy)-3-(fluoromethyl)phenylamino)-5-methylpyrimidin-4-ylamino)benzo[d]oxazol-2(3H)-one formate salt] was run?
Answer: Its pIC50 is over 6.30.

Question: `Cc1cnc(Nc2cnc(C3CC4CCC(C3)N4)c(C)c2)nc1Nc1ccc2oc(=O)[nH]c2c1` (stereo not shown) [II-66, 5-(2-(6-(8-aza-bicyclo[3.2.1]octan-3-yl)-5-methylpyridin-3-ylamino)-5-methylpyrimidin-4-ylamino)benzo[d]oxazol-2(3H)-one] was tested. Which pIC50 did it give?
Answer: The pIC50 was 5.30 to 6.30.

Question: How did the pIC50 turn out when `Cc1cnc(Nc2cc(C(C)N3CCCC3)cc(C(F)(F)F)c2)nc1Nc1ccc2oc(=O)[nH]c2c1` (stereo not shown) [Compound I-463, 5-(5-methyl-2-(3-(1-(pyrrolidin-1-yl)ethyl)-5-(trifluoromethyl)phenylamino)pyrimidin-4-ylamino)benzo[d]oxazol-2(3H)-one] was run?
Answer: Its pIC50 is over 6.30.

Question: How did the pIC50 turn out when `Cc1cnc(Nc2ccc3oc(=O)[nH]c3c2)nc1Nc1ccc2oc(=O)[nH]c2c1` [IV-22, 5,5′-(5-methylpyrimidine-2,4-diyl)bis(azanediyl)dibenzo[d]oxazol-2(3H)-one] was run?
Answer: The pIC50 was over 6.30.

Question: How did the pIC50 turn out when `Cc1cnc(Nc2cc(Cl)cc(Br)c2)nc1Nc1ccc2oc(=O)[nH]c2c1` [Compound I-185, 5-[2-(3-Bromo-5-chloro-phenylamino)-5-methyl-pyrimidin-4-ylamino]-3H-benzooxazol-2-one] was run?
Answer: Its pIC50 is under 5.00.

same assay, conditions: tested under conditions described in Example 3 (IL-2 stimulated human primary T-cell proliferation); read-out: ability to inhibit JAK3 activity, IC50 range (Table V)

Question: `Cc1cnc(Nc2ccc(N3CCNCC3)cc2)nc1Nc1ccc2oc(=O)[nH]c2c1` [Compound I-332, 5-methyl-N4-(2-oxo-2,3-dihydro-1,3-benzoxazol-5-yl)-N2-(4-piperazino)phenyl-2,4-pyrimidinediamine] was tested. Which pIC50 did it give?
Answer: The pIC50 was over 6.30.

Question: `Cc1cnc(Nc2cccc(OCC(=O)NC3CC3)c2)nc1Nc1ccc2oc(=O)[nH]c2c1` [Compound I-315, N2-[3-(cyclopropylaminocarbonylmethoxy)]phenyl-5-methyl-N4-(2-oxo-2,3-dihydro-1,3-benzoxazol-5-yl)-2,4-pyrimidinediamine] was tested. Which pIC50 did it give?
Answer: Its pIC50 is over 6.30.

Question: With `CC(=O)N(C)c1ccc(Nc2ncc(C)c(Nc3ccc4oc(=O)[nH]c4c3)n2)cc1` [Compound I-309, N2-[4-(N-acetyl-N-methyl)amino]phenyl-5-methyl-N4-(2-oxo-2,3-dihydro-1,3-benzoxazol-5-yl)-2,4-pyrimidinediamine] as the compound, how does the pIC50 read?
Answer: The pIC50 was over 6.30.

Question: How did the pIC50 turn out when `Cc1cnc(Nc2cccc(-c3ccncc3)c2)nc1Nc1ccc2oc(=O)[nH]c2c1` [Compound I-289, 5-methyl-N4-(2-oxo-2,3-dihydro-1,3-benzoxazol-5-yl)-N2-[3-(pyridin-4-yl)]phenyl-2,4-pyrimidinediamine] was run?
Answer: Its pIC50 is over 6.30.

Question: `COc1cc(Nc2ncc(C)c(Nc3ccc4oc(=O)[nH]c4c3)n2)ccc1C#N` [Compound I-380, N2-(4-cyano-3-methoxy)phenyl-5-methyl-N4-(2-oxo-2,3-dihydro-1,3-benzoxazol-5-yl)-2,4-pyrimidinediamine] was tested. Which pIC50 did it give?
Answer: The pIC50 was over 6.30.

Question: With `COc1c(C)cc(Nc2ncc(C)c(Nc3ccc4oc(=O)[nH]c4c3)n2)cc1C` [Compound I-369, N2-(3,5-dimethyl-4-methoxy)phenyl-5-methyl-N4-(2-oxo-2,3-dihydro-1,3-benzoxazol-5-yl)-2,4-pyrimidinediamine] as the compound, how does the pIC50 read?
Answer: The pIC50 was over 6.30.

Question: With `Cc1ccc(Nc2ncc(C)c(Nc3ccc4oc(=O)[nH]c4c3)n2)cc1Cl` [Compound I-364, N2-(3-chloro-4-methyl)phenyl-5-methyl-N4-(2-oxo-2,3-dihydro-1,3-benzoxazol-5-yl)-2,4-pyrimidinediamine] as the compound, how does the pIC50 read?
Answer: The pIC50 was over 6.30.
